Tests used:
[1] = target: T1, hD2L receptor (Homo sapiens, UniProt P14416); test: Radioligand binding, dopamine D2 ([3H]spiperone); conditions: read-out: Binding affinity (Inhibition rate % at 10 μM) D2
T1 construct: purchased BioSignal Packard Inc., Montreal, Canada
Procedure: (§1) The radioligands used were [^3H] spiperone (for hD2L and hD3 receptors, 1 nM) and [^3H] YM-09151-2 (for hD4.2 receptor, 0.06 nM). Radioligand bindings were performed by the protocols provided by the supplier of receptor membranes (BioSignal Packard Inc., Montreal, Canada). Briefly, the buffer used in D2 or D3 receptor binding assay was 50 mM Tris-HCl (pH 7.4), 10 mM MgCl2, 1 mM EDTA, or 50 mM Tris-HCl (pH 7.4), 5 mM MgCl2, 5 mM EDTA, 5 mM KCl, 1.5 mM CaCl2, 120 mM NaCl, respectively. In [^3H] YM-09151-2 receptor binding assays, the buffer containing 50 mM Tris-HCl (pH 7.4), 5 mM MgCl2, 5 mM EDTA, 5 mM KCl and 1.5 mM CaCl2 was used. Nonspecific binding was determined with haloperidol (10 μM) or clozapine (10 μM) for D2 and D3, and D4 receptors, respectively. Competition binding studies were carried out with 7-8 concentrations of the test compound run in duplicate tubes, and isotherms from three assays were calculated by computerized nonlinear regression analysis (GraphPad Prism Program, San Diego, […]) to yield median inhibitory concentration (IC50) values.

[2] = target: T2, 5-HT2c (Homo sapiens, UniProt P28335); test: Radioligand binding, 5-HT2c ([3H]Mesulergine); conditions: read-out: Binding affinity (Inhibition rate % at 10 μM) 5HT2c
T2 construct: purchased Euroscreen/BioSignal Packard Inc
T2 sequence (P28335 33-458): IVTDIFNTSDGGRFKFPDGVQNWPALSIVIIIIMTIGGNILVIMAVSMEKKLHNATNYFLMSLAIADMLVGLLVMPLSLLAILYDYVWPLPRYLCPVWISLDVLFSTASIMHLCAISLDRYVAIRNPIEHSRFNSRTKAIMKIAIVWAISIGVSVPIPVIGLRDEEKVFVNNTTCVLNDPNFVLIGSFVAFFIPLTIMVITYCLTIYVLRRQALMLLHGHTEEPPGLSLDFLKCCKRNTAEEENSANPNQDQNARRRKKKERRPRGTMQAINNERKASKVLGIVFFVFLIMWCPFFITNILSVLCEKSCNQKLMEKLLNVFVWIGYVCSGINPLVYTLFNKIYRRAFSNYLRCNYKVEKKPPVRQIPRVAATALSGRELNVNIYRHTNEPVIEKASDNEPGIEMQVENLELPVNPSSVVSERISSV
Procedure: (§2) Radioligand bindings were performed according to the test method provided by the supplier of receptor membrane (Euroscreen/BioSignal Packard Inc.).

[3] = target: T3, 5-HT1a (Homo sapiens, UniProt P08908); test: Radioligand binding, 5-HT1a ([3H]8-OH-DPAT); conditions: read-out: Binding affinity (Inhibition rate % at 10 μM) 5HT1a
T3 construct: purchased Euroscreen/BioSignal Packard Inc
T3 sequence (P08908 1-422): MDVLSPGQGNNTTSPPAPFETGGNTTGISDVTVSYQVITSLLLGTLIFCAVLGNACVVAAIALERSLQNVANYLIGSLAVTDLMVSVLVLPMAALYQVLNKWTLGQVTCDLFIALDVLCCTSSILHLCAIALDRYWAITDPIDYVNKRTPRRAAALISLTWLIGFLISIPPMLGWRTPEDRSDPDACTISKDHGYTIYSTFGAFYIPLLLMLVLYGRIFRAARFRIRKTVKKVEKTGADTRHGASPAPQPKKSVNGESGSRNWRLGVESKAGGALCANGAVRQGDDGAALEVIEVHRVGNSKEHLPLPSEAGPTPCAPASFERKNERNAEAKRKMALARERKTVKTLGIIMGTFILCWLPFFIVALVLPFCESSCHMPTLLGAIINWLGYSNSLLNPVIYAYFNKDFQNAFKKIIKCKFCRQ
Procedure: as §2

[4] = target: T4, 5-HT7 (Homo sapiens, UniProt P34969); test: Radioligand binding, 5-HT7 ([3H]LSD); conditions: read-out: Binding affinity (Inhibition rate % at 10 μM) 5HT7
T4 construct: purchased Euroscreen/BioSignal Packard Inc
Procedure: as §2

[5] = target: D1 (Homo sapiens, UniProt P21728); test: Radioligand binding for selectivity, D1; conditions: read-out: Binding affinity (Inhibition rate % at 10 μM) D1
[6] = target: T5, hD3 receptor (Homo sapiens, UniProt P35462); test: Radioligand binding, dopamine D3 ([3H]spiperone); conditions: read-out: Binding affinity (Inhibition rate % at 10 μM) D3
T5 construct: purchased BioSignal Packard Inc., Montreal, Canada
Procedure: as §1

[7] = target: T6, human serotonin 5-HT6 receptor (Homo sapiens, UniProt P50406); test: [3H]LSD binding at cloned 5-HT6 receptors; conditions: for IC50: [3H]LSD 1.87 nM, cloned receptor membranes, 37° C., 60 min, read-out: IC50; for inhibition at 10 µM: read-out: Binding affinity (Inhibition rate % at 10 μM) 5HT6
T6 construct: made in house; host or cells: Sf21 insect cells (pBacPAK8 baculovirus vector)

[8] = target: T7, 5-HT2a (Homo sapiens, UniProt P28223); test: Radioligand binding, 5-HT2a ([3H]Ketanserin); conditions: read-out: Binding affinity (Inhibition rate % at 10 μM) 5HT2a
T7 construct: purchased Euroscreen/BioSignal Packard Inc
Procedure: as §2

[9] = target: T8, hD4.2 receptor (Homo sapiens, UniProt P21917, DEL265-296); test: Radioligand binding, dopamine D4 ([3H]YM-09151-2); conditions: read-out: Binding affinity (Inhibition rate % at 10 μM) D4
T8 construct: purchased BioSignal Packard Inc., Montreal, Canada
T8 sequence (P21917 with tags, fused parts or gaps DEL265-296): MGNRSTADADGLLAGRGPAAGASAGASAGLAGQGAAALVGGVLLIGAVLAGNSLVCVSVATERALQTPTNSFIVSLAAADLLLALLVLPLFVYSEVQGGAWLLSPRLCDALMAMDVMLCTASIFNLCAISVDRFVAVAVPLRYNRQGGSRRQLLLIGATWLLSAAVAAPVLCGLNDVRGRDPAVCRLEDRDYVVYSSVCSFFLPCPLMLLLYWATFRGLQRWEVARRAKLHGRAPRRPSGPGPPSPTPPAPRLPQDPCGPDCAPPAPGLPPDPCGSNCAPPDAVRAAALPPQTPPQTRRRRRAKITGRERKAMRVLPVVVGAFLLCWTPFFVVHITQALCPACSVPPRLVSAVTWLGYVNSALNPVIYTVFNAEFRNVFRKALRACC
Procedure: as §1

Sequence of D1 (P21728 whole entry): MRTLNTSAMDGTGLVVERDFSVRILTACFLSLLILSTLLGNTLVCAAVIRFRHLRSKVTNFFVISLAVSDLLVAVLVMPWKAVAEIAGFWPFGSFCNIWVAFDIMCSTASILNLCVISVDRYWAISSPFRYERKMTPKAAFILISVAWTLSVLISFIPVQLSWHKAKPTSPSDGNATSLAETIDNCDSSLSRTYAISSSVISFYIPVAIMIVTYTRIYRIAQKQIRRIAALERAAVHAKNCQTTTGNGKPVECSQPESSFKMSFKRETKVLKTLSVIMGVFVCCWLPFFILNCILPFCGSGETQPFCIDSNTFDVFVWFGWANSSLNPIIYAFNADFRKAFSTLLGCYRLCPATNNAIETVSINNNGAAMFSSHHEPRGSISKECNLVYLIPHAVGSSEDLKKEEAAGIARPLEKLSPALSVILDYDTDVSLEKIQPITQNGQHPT
T1 sequence (P14416 whole entry): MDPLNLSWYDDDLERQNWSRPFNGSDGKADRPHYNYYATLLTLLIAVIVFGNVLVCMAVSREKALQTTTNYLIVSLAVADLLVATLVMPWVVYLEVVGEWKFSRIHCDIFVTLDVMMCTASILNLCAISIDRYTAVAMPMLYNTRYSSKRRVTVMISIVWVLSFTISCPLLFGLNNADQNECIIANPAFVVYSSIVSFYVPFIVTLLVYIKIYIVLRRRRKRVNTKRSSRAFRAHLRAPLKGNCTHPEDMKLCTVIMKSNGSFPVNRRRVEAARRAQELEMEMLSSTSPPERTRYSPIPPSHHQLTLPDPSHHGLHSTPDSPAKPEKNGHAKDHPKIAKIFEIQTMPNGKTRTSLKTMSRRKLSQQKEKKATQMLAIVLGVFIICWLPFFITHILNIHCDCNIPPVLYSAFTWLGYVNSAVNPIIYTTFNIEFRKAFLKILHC
T4 sequence (P34969 whole entry): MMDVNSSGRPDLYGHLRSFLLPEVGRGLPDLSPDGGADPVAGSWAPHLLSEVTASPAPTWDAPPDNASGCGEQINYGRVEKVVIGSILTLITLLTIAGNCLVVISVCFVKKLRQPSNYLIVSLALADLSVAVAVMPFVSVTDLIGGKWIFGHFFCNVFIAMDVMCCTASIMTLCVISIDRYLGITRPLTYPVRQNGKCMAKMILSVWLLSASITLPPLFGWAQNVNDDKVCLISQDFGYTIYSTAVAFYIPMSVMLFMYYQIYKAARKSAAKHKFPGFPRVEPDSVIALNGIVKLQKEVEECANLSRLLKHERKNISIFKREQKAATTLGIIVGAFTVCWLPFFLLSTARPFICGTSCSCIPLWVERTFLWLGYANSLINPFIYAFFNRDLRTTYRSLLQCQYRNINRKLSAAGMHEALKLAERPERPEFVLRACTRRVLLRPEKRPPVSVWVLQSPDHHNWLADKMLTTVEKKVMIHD
T7 sequence (P28223 whole entry): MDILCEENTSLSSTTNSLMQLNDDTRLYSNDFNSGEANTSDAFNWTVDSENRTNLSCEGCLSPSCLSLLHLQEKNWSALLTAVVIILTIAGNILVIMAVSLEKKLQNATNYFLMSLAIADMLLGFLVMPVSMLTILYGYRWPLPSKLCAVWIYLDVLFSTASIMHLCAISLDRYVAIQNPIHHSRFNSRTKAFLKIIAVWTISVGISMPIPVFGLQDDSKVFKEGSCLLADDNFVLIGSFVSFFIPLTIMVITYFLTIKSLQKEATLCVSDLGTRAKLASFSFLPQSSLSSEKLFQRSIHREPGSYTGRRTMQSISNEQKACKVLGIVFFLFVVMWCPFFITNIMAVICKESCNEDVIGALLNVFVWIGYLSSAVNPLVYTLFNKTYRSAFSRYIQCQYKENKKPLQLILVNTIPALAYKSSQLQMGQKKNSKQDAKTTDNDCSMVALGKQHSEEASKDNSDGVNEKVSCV
T6 sequence (P50406 whole entry): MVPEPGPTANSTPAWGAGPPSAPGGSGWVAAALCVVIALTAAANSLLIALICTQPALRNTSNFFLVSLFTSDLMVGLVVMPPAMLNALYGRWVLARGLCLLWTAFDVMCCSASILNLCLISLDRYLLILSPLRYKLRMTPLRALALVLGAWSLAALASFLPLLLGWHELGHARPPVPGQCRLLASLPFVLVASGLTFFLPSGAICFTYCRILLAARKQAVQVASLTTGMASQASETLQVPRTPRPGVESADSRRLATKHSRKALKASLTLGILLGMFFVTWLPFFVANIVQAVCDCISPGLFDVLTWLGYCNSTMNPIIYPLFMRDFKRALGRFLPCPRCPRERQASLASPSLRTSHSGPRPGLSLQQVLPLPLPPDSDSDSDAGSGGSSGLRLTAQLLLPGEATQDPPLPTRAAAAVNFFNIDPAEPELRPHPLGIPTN
T5 sequence (P35462 whole entry): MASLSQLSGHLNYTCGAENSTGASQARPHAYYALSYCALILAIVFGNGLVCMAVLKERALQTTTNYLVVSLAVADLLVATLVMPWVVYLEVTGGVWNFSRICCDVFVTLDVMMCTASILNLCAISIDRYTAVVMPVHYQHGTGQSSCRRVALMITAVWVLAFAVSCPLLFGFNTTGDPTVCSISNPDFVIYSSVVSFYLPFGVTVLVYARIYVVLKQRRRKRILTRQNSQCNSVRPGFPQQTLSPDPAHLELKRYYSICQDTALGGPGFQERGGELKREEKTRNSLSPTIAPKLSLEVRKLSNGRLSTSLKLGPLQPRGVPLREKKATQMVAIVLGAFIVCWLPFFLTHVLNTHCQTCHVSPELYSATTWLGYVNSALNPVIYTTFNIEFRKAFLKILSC

Row | Compound | inhibition at 10 µM [1] [%] | inhibition at 10 µM [2] [%] | inhibition at 10 µM [3] [%] | inhibition at 10 µM [4] [%] | inhibition at 10 µM [5] [%] | inhibition at 10 µM [6] [%] | IC50 [7] [nM] | inhibition at 10 µM [7] [%] | inhibition at 10 µM [8] [%] | inhibition at 10 µM [9] [%]
1 | COc1cc(Cl)c2c(c1)NC(=O)C(C)(c1ccccc1)C2=O (stereo not drawn) [Example 5, 5-chloro-7-methoxy-3-methyl-3-phenyl-1H-quinoline-2,4-dione] | 20.5 | 20.5 | 18.9 | 9.4 | 10.3 | 10.1 | 560 | 73.5 | 26.8 | 0
2 | COc1cc(Br)c2c(c1)NC(=O)C(C)(c1ccccc1)C2=O (stereo not drawn) [Example 7, 5-bromo-7-methoxy-3-methyl-3-phenyl-1H-quinoline-2,4-dione] | 12.8 | 30.3 | 29.1 | 12.4 | 30.5 | 1.5 | 119 | 71.1 | 25.4 | 0.8
3 | CC1(c2ccccc2)C(=O)Nc2c(Br)cc(Br)cc2C1=O (stereo not drawn) [Example 10, 6,8-dibromo-3-methyl-3-phenyl-1H-quinoline-2,14-dione] | 11.2 | 16.8 | 0 | 20.7 | 13.5 | 19.5 | 1330 | 73.4 | 29.5 | 0
4 | CC1(c2ccc([N+](=O)[O-])cc2)C(=O)Nc2cc(Cl)cc(Cl)c2C1=O (stereo not drawn) [Example 14, 5,7-dichloro-3-methyl-3-(4-nitro-phenyl)-1H-quinoline-2,4-dione] | 26.5 | 3.8 | 60.5 | 10.8 | 6.5 | 30.7 | 870 | 71.2 | 54.1 | 0
5 | CC1(c2ccc(N)cc2)C(=O)Nc2cc(Cl)cc(Cl)c2C1=O (stereo not drawn) [Example 15, 3-(4-amino-phenyl)-5,7-dichloro-3-methyl-1H-quinoline-2,4-dione] | 0 | 15.6 | 52.3 | 11.1 | 4.8 | 5.8 | 254 | 73 | 16.9 | 4.5
6 | CC1(c2ccc(I)cc2)C(=O)Nc2cc(Cl)cc(Cl)c2C1=O (stereo not drawn) [Example 16, 5,7-dichloro-3-(4-iodo-phenyl)-3-methyl-1H-quinoline-2,4-dione] | 20.1 | 34.5 | 43.5 | 50.7 | 24.7 | 10 | 1550 | 70.9 | 47.2 | 1.3
7 | CC1(c2ccc(Cl)cc2)C(=O)Nc2cc(Cl)cc(Cl)c2C1=O (stereo not drawn) [Example 17, 5,7-dichloro-3-(4-chloro-phenyl)-3-methyl-1H-quinoline-2,4-dione] | 7.5 | 21.2 | 26.7 | 26.9 | 13.8 | 16.5 | 1430 | 69.8 | 30.2 | 0.5
8 | CC1(c2ccc(Br)cc2Br)C(=O)Nc2cc(Cl)cc(Cl)c2C1=O (stereo not drawn) [Example 27, 3-(2,4-dibromo-phenyl)-5,7-dichloro-3-methyl-1H-quinoline-2,4-dione] | 10.2 | 28.1 | 46 | 12.3 | 25.8 | 15.6 | 349 | 71.1 | 30.8 | 1.6
9 | COc1ccc(C2(C)C(=O)Nc3c(Br)cc(Br)cc3C2=O)cc1[N+](=O)[O-] (stereo not drawn) [Example 28, 6,8-dibromo-3-(4-methoxy-3-nitro-phenyl)-3-methyl-1H-quinoline-2,4-dione] | 9.4 | 13.7 | 60.9 | 10.2 | 46.9 | 40.9 | 1200 | 73.2 | 9 | 2.3
10 | COc1ccc(C2(C)C(=O)Nc3c(Br)cc(Br)cc3C2=O)cc1N (stereo not drawn) [Example 29, 3-(3-amino-4-methoxy-phenyl)-6,8-dibromo-3-methyl-1H-quinoline-2,4-dione] | 5.6 | 40.6 | 40.7 | 28.1 | 23.6 | 43.8 | 1550 | 68.5 | 21.1 | 11.6
11 | CC1(c2ccc(O)c(N)c2)C(=O)Nc2c(Br)cc(Br)cc2C1=O (stereo not drawn) [Example 30, 3-(3-amino-4-hydroxy-phenyl)-6,8-dibromo-3-methyl-1H-quinoline-2,4-dione] | 18.5 | 5.4 | 0 | 4.9 | 18.6 | 25.1 | 1730 | 69.2 | 35.1 | 0.9
12 | COc1ccc(C2(C)C(=O)Nc3ccccc3C2=O)cc1 (stereo not drawn) [Example 33, 3-(4-methoxy-phenyl)-3-methyl-1H-quinoline-2,4-dione] | 20.9 | 13.5 | 20.4 | 6.6 | 29.5 | 13.1 | 487 | 72.4 | 10.7 | 0

— US7592457B2 (Korea Research Institute of Chemical Technology, priority 2004, dated 2009)
